This note sets out measurements from article PMC8844424, “Optimization, purification and characterization of laccase from Ganoderma leucocontextum along with its phylogenetic relationship” (Scientific Reports, 2022).

This assay relates to Glacc110 (purified laccase of G. leucocontextum). Briefly: spectrophotometric oxidation assay at […] nm, Lineweaver-Burk plot. Type of assay: biochemical, Ganoderma leucocontextum. As to conditions: 1-10 mM guaiacol, 100 mM citrate-phosphate buffer, pH 3.0; temperature not stated for kinetics.

For the compound `COc1ccccc1O` [guaiacol], the Km was 1660 µM.
